Laboratory results as given in patent US5306710A, “Method for treating endotoxin shock with CRF” (Regents of the University of California, priority 1992, dated 1994).
No end group written: not given here.

Tests used:
[1] = Vascular leakage produced by PAF-acether injected subcutaneously into the abdomen; assay type: in vivo, rat; settings: CRF 30 μg/kg s.c. 30 min before PAF-acether 1 μg/0.1 ml/rat s.c.; muscle removed 0.5 hr later
Description: (§1) CRF: 30 μg/kg s.c. injected 30 min before subcutaneous
(§2) injection of PAF-acether (1 μg/0.1 ml/rat) into the
(§3) abdomen; muscle removed 0.5 hr later.

PAF-acether = experiment: as above; assay type: in vivo, rat; settings: CRF 30 μg/kg s.c. 30 min before PAF-acether
Description: as §1, §2, §3

[2] = test system: rat brain after cold injury (vascular permeability); experiment: Freeze (cold) injury to brain, Monastral blue vascular leakage; assay type: in vivo
Excerpt: An in vivo model of injury to study brain edema has been developed as a reproducible edema model, which has the features of immediate cortical damage followed by the subsequent development of brain edema. This model is described by Chan et al., Brain Research 277, pp. 329-337 (1983). The model uses rats which are anesthetized. A 2.5 cm incision is made over the sagittal suture and the bone of the right hemisphere exposed. A 60 mm^2 plate attached to a brass cup filled with dry ice-acetone mixture, with a temperature of -50° C., is applied to the rat skull for one minute. The animals are sacrificed at various intervals after the onset of cold-injury. A dye is administered intravenously before the freezing. Cortical slices are then obtained of the brain.
16 male rats were randomly divided into eight pairs and one rat in each pair received either saline or CRF (subcutaneously twice at 30 μg/kg, 30 min and 10 min before cold injury). The animals were anesthetized with sodium pentobarbital, 60 mg/kg intraperitoneally, and injected with Monastral blue, 60 mg/kg intravenously. A cold probe was applied onto the skull for […] and the brains taken out 1 hour after cold injury. The staining of brain tissues with Monastral blue, a colloidal pigment that gets trapped between the albuminal surface of the endothelial cell and the basement membrane, was proportional to the degree of vascular leakage. The results from the first pair are shown as FIG. 1.
The size of the lesion, measured as area in mm^2, and the degree of staining intensity, were quantified using an image-analysis software program called JAVA (Jandel Corporation, San Rafeal, Calif.). The stain intensity, given in arbitrary units, was internally calibrated using Monastral blue solutions (1-30 mg/ml) placed on white filter paper. Values are mean ±S. E. M.

[3] = test system: rat abdominal muscle after celiotomy (vascular leakage); experiment: Vascular leakage after celiotomy (4 cm midline incision through abdominal muscle wall), Monastral blue; assay type: in vivo; settings: for Area / Intensity / Lesion Size: tissues 0.5 hr after surgery
Description: Experiments were conducted on male Sprague-Dawley rats 243±15 gm (S. D., Simonsen Labs., Gilroy, Calif.) anesthetized with sodium pentobarbital, 60 mg/kg i.p. Monastral blue, 60 mg/kg i.v., was injected 0.2 ml/100 g, 3 min. before a 4 cm midline incision through the abdominal muscle wall (celiotomy). Saline or CRF was administered to randomizd pairs with N=8 rats per group. The size of the lesion, measured as area in mm^2, an its light intensity, were quantified using the JAVA image-analysis software program. The light intensity, given in arbitrary units, was internally calibrated using Monastral blue solutions (1-30 mg/ml) placed on white filter paper. Values are mean ±S. E. M. FIG. 2 illustrates the respective amount of vascular permeability for one pair of rats (control and treated). Tables III and IV set out data from these experiments.
CRF: injected at various doses subcutaneously 30 min
before a 4 cm midline incision, tissues taken 0.5 hr
CRF: 30 μg/kg s.c. injected 2 hr before a 4 cm midline
incision, tissues taken 0.5 hr after surgery

[4] = test system: rat brain after cold injury (brain edema); experiment: Freeze injury to cerebral cortex, water and sodium content as index of brain edema; assay type: in vivo; settings: CRF 30 μg/kg s.c. 2×, tissues 3 hr after cold injury, ± S.E.M., N = 5
Description: In a second set of experiments, the brain surface, namely the cerebral cortex, was injured by freezing and the water and sodium content were measured in the cerebral cortex and in the basal ganglia, a part of the brain away from the freeze zone. The water and sodium content of the brain tissue served as an index of brain edema. After freeze injury, the water and sodium content of the cerebral cortex were evaluated relative to non-frozen tissues. CRF administered in two separate doses of 30 μg/kg subcutaneously, one dose 15 min. before the injury and the second dose 90 min. after the first dose, inhibited the two indices of brain edema.
Male SpragueDawley rats, 300-325 g, anesthetized with
ketamineacepromazine, were injected saline or CRF (30 μg/kg s.c.
2×) and injury to cerebral cortex was produced by applying a cold
probe to the skull for 1 min. Brain tissues were obtained 3 hr later and
analyzed for water and sodium content.

rat pawskin = settings: mediators injected into the rat pawskin; previously shown; cited from earlier work
blood pressure = settings: prior art report; cited from earlier work
ACTH = settings: prior art report; cited from earlier work
[5] = CRF 15 μg/kg s.c. 30 min before incision
[6] = CRF 30 μg/kg s.c. 30 min before incision
[7] = CRF 30 μg/kg s.c. 2 hr before incision
[8] = CRF 60 μg/kg s.c. 30 min before incision

Corticotropin-Releasing Factor (SEEPPISLDLTFHLLREVLEMARAEQLAQQAHSNRKLMEII; not fully specified; ends and bridges not checked; UniProt P06850 154-194, looked up) [CRF]
Intensity [1]: 1.4 ± 0.05 | muscle lesion size relative to that of the saline-treated control group (PAF-acether): 44% | blinded observer's correct assignment of brains to saline or CRF group ([2]; eight pairs of rats, more damaged vs less damaged brain): 8 out of 8 | lesion size relative to that of the saline-treated group ([2]; rat, CRF 30 μg/kg s.c. twice before cold injury): 44% | Intensity (stain intensity) ([2]; rat, CRF 30 μg/kg s.c. twice, 30 min and 10 min before cold injury, brains taken 1 hour after injury, mean ± S.E.M.): 2.0 ± 0.05 arbitrary units | lesion size relative to that of the saline-treated group [3, 5]: 63% | Area [3, 5]: 505 ± 16 mm^2 | Intensity [3, 5]: 2.0 ± 0.03 arbitrary units | Lesion Size [3, 5]: 1031 ± 44 | lesion size relative to that of the saline-treated group [3, 6]: 42% | Area [3, 6]: 361 ± 18 mm^2 | Intensity [3, 6]: 1.9 ± 0.05 arbitrary units | Lesion Size [3, 6]: 676 ± 47 | lesion size relative to that of the saline-treated group [3, 7]: 59% | Area [3, 7]: 477 ± 31 mm^2 | Intensity [3, 7]: 1.9 ± 0.03 arbitrary units | Lesion Size [3, 7]: 919 ± 51 | lesion size relative to that of the saline-treated group [3, 8]: 29% | Area [3, 8]: 257 ± 3 mm^2 | Intensity [3, 8]: 1.8 ± 0.05 arbitrary units | Lesion Size [3, 8]: 468 ± 19 | SODIUM, cerebral cortex ([4]; injured cerebral cortex): 271 ± 8 mEg/kg dry wt | WATER CONTENT, cerebral cortex ([4]; injured cerebral cortex): 77 ± 4% | SODIUM, basal ganglia ([4]; non-injured basal ganglia): 215 ± 9 mEg/kg dry wt | WATER CONTENT, basal ganglia ([4]; non-injured basal ganglia): 76 ± 1% | effect on edema-producing properties of inflammatory mediators (serotonin, substance P, bradykinin, neurotensin, histamine) (rat pawskin): antagonize the edema-producing properties of these mediators

oCRF: ovine (sheep) CRF, synthetic, disclosed in U.S. Pat. No. 4,415,558 (SQEPPISLDLTFHLLREVLEMTKADQLAQQAHSNRKLLDIA; not fully specified; ends and bridges not checked; UniProt P01142 148-188, looked up)
effect on blood pressure (blood pressure): lower blood pressure

sauvagine (QGPPISIDLSLELLRKMIEIEKQEKEKQQAANNRLLLDTI; not fully specified; ends and bridges not checked; UniProt P01144 1-40, looked up) [40 amino acid peptide generally similar to CRF]
effect on blood pressure (blood pressure): lowering blood pressure in mammals | effect on ACTH secretion (ACTH): stimulating the secretion of ACTH and -endorphin
